For series [1] the following is noted: for Solubility, First liquid of Japanese Pharmacopoeia: pH 1.2; for Solubility, Second liquid of Japanese Pharmacopoeia: pH 6.8.
Description: The solubilities of the substance under test in the first liquid (JP1, pH=1.2) of the Japanese Pharmacopoeia and the second liquid (JP2, pH=6.8) of the Japanese Pharmacopoeia, were evaluated.
Another series has as its target T1, hα4 and β1 integrins (Homo sapiens, UniProt P05556+P13612).
T1 construct: expressed in transfected cells; host or cells: CHO cells
The series can be described thus: In vitro inhibition of binding between CHO cells expressing hα4 and β1 integrins and Eu3+-hVCAM-1 D1D7-IgG. To be noted: for Ki: CHO cells expressing hα4 and β1 integrins, Eu3+-hVCAM-1 D1D7-IgG ligand, without HSA; for IC50: in the presence of 3% human serum albumin (HSA final concentration 3%). In a few lines:
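Bound europium-labelled VCAM-1 D1D7-IgG on α4β1-expressing CHO cells was measured by time-resolved fluorescence after washing at 4 °C. Ligand (2 nM working dilution) and test compound, with or without 3% final HSA, were co-incubated for 1 h at room temperature in Mn²⁺-containing HEPES buffer, pH 7.5. IC50 came from % binding inhibition; Ki was calculated from ligand concentration and Scatchard Kd.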

Series [2] relates to eosinophile infiltration in mice actively sensitized with ascaris. The series can be described thus: Test for eosinophile infiltration in mice actively sensitized with ascaris, once-a-day administration. The series is classed as in vivo. The procedure:
(§1) Test for eosinophile infiltration in mice actively sensitized with ascaris (antigen to pig roundworm):
In the same manner as in Evaluation Example 2, the substances under test were orally administered once a day, in an amount of 5 mg/kg for compound A (representative compound of WO 02/053534) and the compound of Example 58, and in an amount of 0.8 mg/kg of the compound of Example 161, and an evaluation was performed in the same manner as in Evaluation Example 2.

Series [3] has the same test system. The series can be described thus: Test for eosinophile infiltration in mice actively sensitized with ascaris, administered two times a day. The series is classed as in vivo. To be noted: orally 5 mg/kg two times a day. The procedure:
as §1
It has been reported that infiltration of eosinophilic cells is induced by active sensitization with ascaris {Int. Arch. Immuno., 108, 11-18 (1995)}. An evaluation of the compounds under test was performed according to the evaluation method described herein. The substance under test was orally administered in an amount of 5 mg/kg, two times a day. The total cell count and the eosinophile count in BALF of 48 hours after sensitization were calculated, and the effects were determined by comparing with the group not administered with the substance under test.

Series [4] in a line: Test for pharmacokinetics and oral absorbability in monkeys. To be noted: orally 0.5 mg/kg, single agent. The series is classed as in vivo. The procedure:
The pharmacokinetic parameters in the case of orally administering (0.5 mg/kg, single agent) the substance under test to monkeys, were as follows.

T1 sequence (P13612 34-1032): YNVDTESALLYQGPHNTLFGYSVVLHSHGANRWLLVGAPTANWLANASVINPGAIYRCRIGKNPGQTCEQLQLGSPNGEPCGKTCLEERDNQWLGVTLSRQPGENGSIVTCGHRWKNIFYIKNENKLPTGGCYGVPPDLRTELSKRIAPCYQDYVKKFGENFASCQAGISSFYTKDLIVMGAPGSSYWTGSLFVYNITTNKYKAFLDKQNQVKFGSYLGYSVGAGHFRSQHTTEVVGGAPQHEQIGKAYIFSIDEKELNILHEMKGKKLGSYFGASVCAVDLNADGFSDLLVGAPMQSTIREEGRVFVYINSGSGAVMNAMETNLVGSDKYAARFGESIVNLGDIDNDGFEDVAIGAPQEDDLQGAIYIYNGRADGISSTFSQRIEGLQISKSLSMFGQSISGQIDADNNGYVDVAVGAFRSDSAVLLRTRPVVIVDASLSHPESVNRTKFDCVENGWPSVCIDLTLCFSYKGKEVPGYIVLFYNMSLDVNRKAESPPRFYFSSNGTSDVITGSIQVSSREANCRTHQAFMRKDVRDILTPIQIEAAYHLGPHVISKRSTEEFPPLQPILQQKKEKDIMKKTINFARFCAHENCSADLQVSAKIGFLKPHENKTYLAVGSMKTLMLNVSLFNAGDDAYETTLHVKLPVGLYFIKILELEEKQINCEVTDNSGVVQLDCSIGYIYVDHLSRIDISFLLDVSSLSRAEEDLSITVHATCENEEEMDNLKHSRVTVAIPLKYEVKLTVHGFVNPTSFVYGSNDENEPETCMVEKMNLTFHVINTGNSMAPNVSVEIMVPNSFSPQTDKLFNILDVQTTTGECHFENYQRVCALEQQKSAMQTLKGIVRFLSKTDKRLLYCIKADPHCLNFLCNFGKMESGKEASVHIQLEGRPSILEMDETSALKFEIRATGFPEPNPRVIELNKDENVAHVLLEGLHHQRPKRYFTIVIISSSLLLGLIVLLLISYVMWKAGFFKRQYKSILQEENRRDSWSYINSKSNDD
T1 sequence (P05556 21-798): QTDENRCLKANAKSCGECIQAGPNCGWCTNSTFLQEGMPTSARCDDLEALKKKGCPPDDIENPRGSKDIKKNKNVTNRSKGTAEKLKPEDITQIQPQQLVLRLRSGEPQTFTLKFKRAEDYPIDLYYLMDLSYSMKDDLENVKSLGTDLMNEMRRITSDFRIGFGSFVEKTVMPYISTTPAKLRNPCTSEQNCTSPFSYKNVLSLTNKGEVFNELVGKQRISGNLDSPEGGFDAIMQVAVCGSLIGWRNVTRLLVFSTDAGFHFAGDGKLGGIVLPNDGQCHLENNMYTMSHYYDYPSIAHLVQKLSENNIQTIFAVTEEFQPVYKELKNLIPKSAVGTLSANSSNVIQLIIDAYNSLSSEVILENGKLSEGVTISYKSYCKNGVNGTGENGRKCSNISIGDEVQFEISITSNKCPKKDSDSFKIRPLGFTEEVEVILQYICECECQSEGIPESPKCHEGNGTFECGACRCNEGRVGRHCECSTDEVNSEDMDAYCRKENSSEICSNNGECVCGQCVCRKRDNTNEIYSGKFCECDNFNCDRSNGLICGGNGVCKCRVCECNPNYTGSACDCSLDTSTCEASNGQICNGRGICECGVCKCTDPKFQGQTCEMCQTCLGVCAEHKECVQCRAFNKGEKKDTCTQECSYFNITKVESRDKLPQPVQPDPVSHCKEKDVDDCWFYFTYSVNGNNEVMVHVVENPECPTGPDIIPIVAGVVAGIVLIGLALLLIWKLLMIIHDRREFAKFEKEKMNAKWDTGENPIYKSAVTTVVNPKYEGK

For the compound `COC1CN([C@H]2C[C@@H](CO[C@H]3CC[C@H](C(=O)O)CC3)N(C(=O)Cc3cc(Cl)c(NC(=O)c4coc5ccccc45)cc3F)C2)C1` (relative stereo) [Example 5, Trans-4-[1-[[4-[(benzo[b]furan-3-ylcarbonyl)amino]-5-chloro-2-fluorophenyl]acetyl]-(4S)-(3-methoxyazetidin-1-yl)-(2S)-pyrrolidinylmethoxy]cyclohexanecarboxylic acid], in series [1], the “Solubility, First liquid of Japanese Pharmacopoeia” value worked out at 1970 µg/mL and the “Solubility, Second liquid of Japanese Pharmacopoeia” value was greater than 2000 µg/mL. In addition, at hα4 and β1 integrins, the Ki was 1.4 nM and the IC50 is 12 nM.
In the case of `CO[C@H]1CN([C@H]2C[C@@H](CO[C@H]3CC[C@H](C(=O)O)CC3)N(C(=O)Cc3ccc(NC(=O)c4coc5ccccc45)c(Cl)c3)C2)C[C@H]1OC` (relative stereo) [Example 61, Trans-4-[1-[[4-[(benzo[b]furan-3-ylcarbonyl)amino]-3-chlorophenyl]acetyl]-(4S)-(cis-3,4-dimethoxypyrrolidin-1-yl)-(2S)-pyrrolidinylmethoxy]cyclohexanecarboxylic acid], in series [1], the “Solubility, First liquid of Japanese Pharmacopoeia” value stood at 1100 µg/mL and the “Solubility, Second liquid of Japanese Pharmacopoeia” value stood at 1300 µg/mL. Also, on hα4 and β1 integrins, the Ki came out at 1.6 nM and the IC50 is 5.5 nM.
For `CO[C@H]1CN([C@H]2C[C@@H](CO[C@H]3CC[C@H](C(=O)O)CC3)N(C(=O)Cc3cc(Cl)c(NC(=O)c4csc5ccccc45)cc3Cl)C2)C[C@H]1OC` [Example 58, Trans-4-[1-[[4-[(benzo[b]thiophen-3-ylcarbonyl)amino]-2,5-dichlorophenyl]acetyl]-(4S)-(cis-3,4-dimethoxypyrrolidin-1-yl)-(2S)-pyrrolidinylmethoxy]cyclohexanecarboxylic acid], the “Average total eosinophile count (×10^5) of (ascaris-sensitized + substance under test) group” value (from here on “Average total eosinophile count”) in series [2] (orally 5 mg/kg once a day) was 1.73 ×10^5. The inhibition in vivo at 5 mg/kg in series [3] (Mus musculus, po, eosinophile count in BALF 48 hours after sensitization vs ascaris-sensitized group, read-out: suppression rate (%)) amounted to 63%. Besides, the “Average total eosinophile count” value in series [3] (BALF 48 hours after sensitization) was 1.63 ×10^5. On hα4 and β1 integrins, affinity was put at a Ki of 1.5 nM and the IC50 is 9.3 nM. Moreover, the “Cltot (mL/min/kg): apparent plasma clearance” value in series [4] was found to be 2.0 mL/min/kg. Also, the “AUC (ng · h/ml): total area under the plasma concentration versus time curve” value in series [4] (plasma, LC/MS/MS) stood at 7555 ng·h/mL.
`O=C(Nc1cc(F)c(CC(=O)N2C[C@@H](N3CCS(=O)(=O)CC3)C[C@H]2CO[C@H]2CC[C@H](C(=O)O)CC2)cc1Cl)c1coc2ccccc12` [Example 161, Trans-4-[1-[[4-[(benzo[b]furan-3-ylcarbonyl)amino]-5-chloro-2-fluorophenyl]acetyl]-(4S)-(1,1-dioxo-1λ^6-thiomorpholin-4-yl)-(2S)-pyrrolidinylmethoxy]cyclohexanecarboxylic acid]: the “Average total eosinophile count” value in series [2] (orally 0.8 mg/kg once a day) was 2.06 ×10^5. Also, at hα4 and β1 integrins, the Ki was 1.8 nM and the IC50 worked out at 8.3 nM.
